# Biological target: T1, CCR1 (Homo sapiens, UniProt P32246)
# T1 sequence (P32246 1-355): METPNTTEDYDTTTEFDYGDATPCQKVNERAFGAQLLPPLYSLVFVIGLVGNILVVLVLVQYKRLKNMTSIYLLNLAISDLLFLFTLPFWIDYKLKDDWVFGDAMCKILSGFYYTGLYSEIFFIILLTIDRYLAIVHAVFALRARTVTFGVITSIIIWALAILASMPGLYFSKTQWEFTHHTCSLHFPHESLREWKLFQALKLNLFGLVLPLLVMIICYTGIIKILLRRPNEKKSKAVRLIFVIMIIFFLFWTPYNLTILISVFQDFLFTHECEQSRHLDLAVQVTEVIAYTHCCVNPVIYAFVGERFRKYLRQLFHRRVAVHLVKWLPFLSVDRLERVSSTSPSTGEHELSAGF
# Test: Method A: calcium flux in CCR1 transfected cells (Fluo-4 NW, FLIPR TETRA), block of the CCR1/MIP-1α interaction
# Format: cell-based
# Details: Method A: Fluo-4 NW, MIP-1 alpha at EC80
# Procedure: Compounds are assessed for the ability to block the interaction of CCR1 and MIP-1α in a functional cellular assay measuring calcium flux in CCR1 transfected cells.
# Method A: Non-adherent cells purchased from Chemicon Corporation (HTS005C), stably expressing recombinant CCR1 and G-alpha-16 are grown in RPMI 1640 medium (Mediatech 10-080-CM) supplemented with 10% heat-inactivated FBS, 0.4 mg/mL Geneticin and penicillin/streptomycin. On the day of the assay, the cells are transferred to a beaker and dye-loaded in bulk using a Fluo-4 NW Calcium Assay Kit with probenecid (Invitrogen F36205) at 0.8E6 cells/mL for 1 hour at room temperature. After 1 hour, they are seeded in a 384-well tissue culture-treated plate at a density of 20,000 cells/well. Appropriately diluted test compound is added to the well to achieve a top concentration of 3,000 nM (diluted 4-fold with 10 doses total). The final concentration of DMSO is 1%. The buffer is HBSS (Invitrogen 14025) with 20 mM HEPES at pH 7.4. The cells are allowed to incubate 1 hour in the dark at room temperature. The plates are transferred to the FLIPR TETRA where MIP-1 alpha in 1% BSA is added at the EC80 final concentration. Wells+/−MIP-1 alpha containing diluted DMSO instead of compound serve as the controls. Intracellular calcium flux is recorded on the FLIPR TETRA, using excitation at 470/495 nm and emission at 515/575 nm. Data are analyzed using Activity Base software.
row,IC50,SMILES
1,1 nM,"CC(NC(=O)c1cncc2c1cnn2-c1ccc(F)cc1)c1ccnc(Br)c1 (centres unmarked) [1-(4-Fluorophenyl)-1H-pyrazolo[3,4-c]pyridine-4-carboxylic acid [1-(2-bromopyridin-4-yl)-ethyl]-amide]"
2,24 nM,"CN(C)S(=O)(=O)Nc1ccc(CNC(=O)c2cncc3c2cnn3-c2ccc(F)cc2)cn1 [1-(4-Fluorophenyl)-1H-pyrazolo[3,4-c]pyridine-4-carboxylic acid [6-(dimethylamino-sulfonylamino)-pyridin-3-ylmethyl]-amide]"
3,17 nM,"C=CC[C@@H](NC(=O)c1cncc2c1cnn2-c1ccc(F)cc1)c1ccnc(Br)c1 [1-(4-Fluorophenyl)-1H-pyrazolo[3,4-c]pyridine-4-carboxylic acid [(R)-1-(2-bromopyridin-4-yl)-but-3-enyl]-amide]"
4,3 nM,"O=C(NCc1cc(C(F)(F)F)cc(C(F)(F)F)c1)c1cncc2c1cnn2-c1ccc(F)cc1 [1-(4-Fluorophenyl)-1H-pyrazolo[3,4-c]pyridine-4-carboxylic acid 3,5-bis-trifluoromethyl-benzylamide]"
5,0.2 nM,"CCC[C@H](NC(=O)c1cncc2c1cnn2-c1ccc(F)cc1)c1cncc(Br)c1 [1-(4-Fluorophenyl)-1H-pyrazolo[3,4-c]pyridine-4-carboxylic acid [(S)-1-(5-bromopyridin-3-yl)-butyl]-amide]"
6,1 nM,"CN1CCN(S(=O)(=O)c2ccc(CNC(=O)c3cncc4c3cnn4-c3ccc(F)cc3)cc2)CC1 [1-(4-Fluorophenyl)-1H-pyrazolo[3,4-c]pyridine-4-carboxylic acid 4-(4-methyl-piperazine-1-sulfonyl)-benzylamide]"
7,3 nM,"CNS(=O)(=O)c1ccc(CNC(=O)c2cncc3c2cnn3-c2ccc(F)cc2)cc1OC [1-(4-Fluorophenyl)-1H-pyrazolo[3,4-c]pyridine-4-carboxylic acid 3-methoxy-4-methylsulfamoyl-benzylamide]"
8,0.3 nM,"NC1CCN(S(=O)(=O)c2ccc(CNC(=O)c3cncc4c3cnn4-c3ccc(F)cc3)cc2)CC1 [1-(4-Fluorophenyl)-1H-pyrazolo[3,4-c]pyridine-4-carboxylic acid 4-(4-amino-piperidine-1-sulfonyl)-benzylamide]"
9,1 nM,"CNS(=O)(=O)c1ccc(CNC(=O)c2cncc3c2cnn3-c2ccc(F)cc2)cc1F [1-(4-Fluorophenyl)-1H-pyrazolo[3,4-c]pyridine-4-carboxylic acid 3-fluoro-4-methylsulfamoyl-benzylamide]"
10,13 nM,"NS(=O)(=O)c1cc(CNC(=O)c2cncc3c2cnn3-c2ccc(F)cc2)ccn1 [1-(4-Fluorophenyl)-1H-pyrazolo[3,4-c]pyridine-4-carboxylic acid (2-sulfamoyl-pyridin-4-ylmethyl)-amide]"
11,11 nM,"O=C(NCc1ccc(CS(=O)(=O)NC2CCCCC2)cc1)c1cncc2c1cnn2-c1ccc(F)cc1 [1-(4-Fluorophenyl)-1H-pyrazolo[3,4-c]pyridine-4-carboxylic acid 4-cyclohexylsulfamoylmethyl-benzylamide]"
12,2 nM,"CCCC(NC(=O)c1cncc2c1cnn2-c1ccc(Cl)cc1)c1ccnc(Br)c1 (centres unmarked) [1-(4-Chlorophenyl)-1H-pyrazolo[3,4-c]pyridine-4-carboxylic acid [1-(2-bromopyridin-4-yl)-butyl]-amide]"
13,0.3 nM,"C=CC[C@H](NC(=O)c1cncc2c1cnn2-c1ccc(F)cc1)c1ccnc(Br)c1 [1-(4-Fluorophenyl)-1H-pyrazolo[3,4-c]pyridine-4-carboxylic acid [(S)-1-(2-bromopyridin-4-yl)-but-3-enyl]-amide]"
14,0.4 nM,"CCCC(NC(=O)c1cncc2c1cnn2-c1ccc(Cl)cc1)c1ccnc(S(C)(=O)=O)c1 (centres unmarked) [1-(4-Chlorophenyl)-1H-pyrazolo[3,4-c]pyridine-4-carboxylic acid [1-(2-methanesulfonyl-pyridin-4-yl)-butyl]-amide]"
15,0.3 nM,"CCC[C@H](NC(=O)c1cncc2c1cnn2-c1ccc(F)cc1)c1cncc(S(N)(=O)=O)c1 [1-(4-Fluorophenyl)-1H-pyrazolo[3,4-c]pyridine-4-carboxylic acid [(S)-1-(5-sulfamoyl-pyridin-3-yl)-butyl]-amide]"
16,2 nM,"C[C@@H](CO)NS(=O)(=O)c1ccc(CNC(=O)c2cncc3c2cnn3-c2ccc(F)cc2)cc1 [1-(4-Fluorophenyl)-1H-pyrazolo[3,4-c]pyridine-4-carboxylic acid 4-((S)-2-hydroxy-1-methyl-ethylsulfamoyl)-benzylamide]"
17,6 nM,"O=C(NCc1ccc(CS(=O)(=O)N2CCCCC2)cc1)c1cncc2c1cnn2-c1ccc(F)cc1 [1-(4-Fluorophenyl)-1H-pyrazolo[3,4-c]pyridine-4-carboxylic acid 4-(piperidine-1-sulfonylmethyl)-benzylamide]"
18,10 nM,"COc1cc(S(C)(=O)=O)ccc1CNC(=O)c1cncc2c1cnn2-c1ccc(F)cc1 [1-(4-Fluorophenyl)-1H-pyrazolo[3,4-c]pyridine-4-carboxylic acid 4-methanesulfonyl-2-methoxy-benzylamide]"
19,3 nM,"O=C(NCc1ccc(S(=O)(=O)N2CCOCC2)nc1)c1cncc2c1cnn2-c1ccc(Cl)cc1 [1-(4-Chlorophenyl)-1H-pyrazolo[3,4-c]pyridine-4-carboxylic acid [6-(morpholine-4-sulfonyl)-pyridin-3-ylmethyl]-amide]"
20,2 nM,"CC(=O)OCCN(C)S(=O)(=O)c1ccc(CNC(=O)c2cncc3c2cnn3-c2ccc(F)cc2)cc1 [Acetic acid 2-{[4-({[1-(4-fluorophenyl)-1H-pyrazolo[3,4-c]pyridine-4-carbonyl]-amino}-methyl)-benzenesulfonyl]-methyl-amino}-ethyl ester]"
21,3 nM,"O=C1CN(S(=O)(=O)c2ccc(CNC(=O)c3cncc4c3cnn4-c3ccc(F)cc3)cc2)CCN1 [1-(4-Fluorophenyl)-1H-pyrazolo[3,4-c]pyridine-4-carboxylic acid 4-(3-oxo-piperazine-1-sulfonyl)-benzylamide]"
22,2 nM,"CN(C1CCNCC1)S(=O)(=O)c1ccc(CNC(=O)c2cncc3c2cnn3-c2ccc(F)cc2)cc1 [1-(4-Fluorophenyl)-1H-pyrazolo[3,4-c]pyridine-4-carboxylic acid 4-(methyl-piperidin-4-yl-sulfamoyl)-benzylamide]"
23,3 nM,"CCC(NC(=O)c1cncc2c1cnn2-c1ccc(F)cc1)c1ccc(S(C)(=O)=O)nc1 (centres unmarked) [1-(4-Fluorophenyl)-1H-pyrazolo[3,4-c]pyridine-4-carboxylic acid [1-(6-methanesulfonyl-pyridin-3-yl)-propyl]-amide]"
24,3 nM,"CC(C)NS(=O)(=O)Cc1ccc(CNC(=O)c2cncc3c2cnn3-c2ccc(F)cc2)cc1 [1-(4-Fluorophenyl)-1H-pyrazolo[3,4-c]pyridine-4-carboxylic acid 4-(isopropylsulfamoyl-methyl)-benzylamide]"
25,25 nM,"CS(=O)(=O)Nc1ccc(CNC(=O)c2cncc3c2cnn3-c2ccc(F)cc2)cn1 [1-(4-Fluorophenyl)-1H-pyrazolo[3,4-c]pyridine-4-carboxylic acid (6-methanesulfonylamino-pyridin-3-ylmethyl)-amide]"
26,0.4 nM,"CC[C@H](NC(=O)c1cncc2c1cnn2-c1ccc(Cl)cc1)c1cncc(S(C)(=O)=O)c1 [1-(4-Chlorophenyl)-1H-pyrazolo[3,4-c]pyridine-4-carboxylic acid [(S)-1-(5-methanesulfonyl-pyridin-3-yl)-propyl]-amide]"

# — patent US8063065B2, “Azaindazole compounds as CCR1 receptor antagonists” (Boehringer Ingelheim International GmbH, priority 2008, dated 2011)
